Measurements from patent US9029076B2, “Tissue preservation and fixation method” (George Mason Research Foundation, Inc., priority 2006, dated 2015).
“Also recorded” adds a separate entry of the source.

Tests used:
mTOR (S2448) = assay: RPA of fixed versus snap frozen samples; settings: cellular equivalents printed on reverse phase protein microarrays, FIG. 7
Description: We compared phosphoproteins from real time, room temperature shipping conditions in a methanol:water or ethanol:water fixative to samples that were snap frozen.

ERK T202/Y204 = assay: RPA phosphoprotein level after 24 h storage of tumor needle samples in preservatives; settings: 24 h in preservative at 4° C., relative normalized RPA intensity
Protocol: (§1) The RPA format, originated by the present inventors and collaborators (see, e.g., Paweletz et al. (2001) Oncogene 20, 1981-1989), immobilizes an individual test sample in a miniature dilution curve such that an array contains hundreds of different patient samples, treatments, or time points. In the RPA format, each array is incubated with one detection protein (e.g. anti-peptide antibody), and a single analyte endpoint is measured and directly compared across multiple samples. Briefly, the lysates are printed on glass backed nitrocellulose array slides (FAST Slides Whatman, Florham Park, N.J. or ONCYTE slides Grace BioLabs, Bend, Oreg.) using a robotic array printing device (GMS 417 arrayer (Affymetrix, Santa Clara, Calif. or Aushon 2470, Aushon Biosystems, Burlington, Mass. equipped with 125-500 μm pins). Each lysate is printed in a dilution curve representing neat, 1:2, 1:4, 1:8, 1:16 and negative control dilutions. The slides are stored with desiccant (Drierite, W. A. Hammond, Xenia, Ohio) at −20° C. prior to immunostaining.
(§2) Immunostaining is performed on an automated slide stainer per manufacturer's instructions (Autostainer CSA kit, Dako, Carpinteria, Calif.). Each slide is incubated with a single primary antibody at room temperature for 30 minutes. Polyclonal primary antibodies can be, e.g.: GSK3α/β Tyr279/216 (Invitrogen-Biosource, Carlsbad, Calif.), BCL-2, HIF-1α (BD, Franklin Lakes, N.J.), 4EBP1, FKHR ser256, eIF4E, eIF4E ser209, eIF4G, eIF4G ser1108, IGFR-β, IRS-1, IRS-2, IRS-1 ser612, SGK, Bak, Bax, BAD, BAD ser112, BAD ser136, BAD ser155, B-Raf, mTOR, mTOR ser2448, p70S6 Thr389, p70S6 kinase, p70S6 ser371, S6 kinase ser240/244, Akt, Akt ser473, Akt Thr308, 4EBP1 ser65, 4EBP1 ser70, and 4EBP1 Thr37/46 (Cell Signaling Technology, Danvers, Mass.). A negative control slide is incubated with antibody diluent. Secondary antibody can be goat anti-rabbit IgG H+L (1:5000) (Vector Labs, Burlingame, Calif.).
(§3) Each array is scanned, spot intensity analyzed, data normalized, and a standardized, single data value can be generated for each sample on the array (Image Quant v5.2, GE Healthcare, Piscataway, N.J.) or MicroVigene v2.8, Vigene Tech, Billerica, Mass.). Spot intensity is integrated over a fixed area. Local area background intensity is calculated for each spot with the unprinted adjacent slide background. […] The Ward method for two-way hierarchical clustering can be performed using JMP v5.0 (SAS Institute, Cary N.C.). Wilcoxon two-sample rank sum test can be used to compare values between two groups. P values less than 0.05 are considered significant. When one cannot assume a normal distribution of the variables, non-parametric methods are used. Kaplan-Meier (log-rank) survival estimates for univariate survival analysis can be used.
(§4) Briefly, tumor tissues from gastrinoma/liver, mesothelioma and parathyroid tumors were sampled by five needle passes and placed into the preservatives listed in Table 5. […] Immediate lysis and denaturation of the cellular proteins were accomplished by standard Pierce Tissue Protein Extraction Buffer (T-PER), with additional SDS, denaturing reagents, and detergents. The cell samples were stored 24 h in the listed preservatives at 4° C. and then the listed phosphoprotein endpoints were measured. […] Some values dropped to zero while others are markedly elevated compared to the freshly lysed cell baseline. […] They were unable to stabilize the phosphorylation state of key signal proteins over a storage period of 24 hours, which is a typical time delay for cell or tissue shipment. Numbers in the table are relative normalized intensity values using the RPA technology described herein.

AKT ser473 = assay: as above; settings: 24 h in preservative at 4° C., relative normalized RPA intensity
Protocol: as §1, §2, §3, §4

EGFR Y1148 = assay: as above; settings: 24 h in preservative at 4° C., relative normalized RPA intensity
Protocol: as §1, §2, §3, §4

IRS-1 ser612 = assay: as above; settings: 24 h in preservative at 4° C., relative normalized RPA intensity
Protocol: as §1, §2, §3, §4

CC3 Asp175 = assay: as above; settings: 24 h in preservative at 4° C., relative normalized RPA intensity
Protocol: as §1, §2, §3, §4

AKT Thr308 = assay: as above; settings: 24 h in preservative at 4° C., relative normalized RPA intensity
Protocol: as §1, §2, §3, §4

CREB ser133 = assay: as above; settings: 24 h in preservative at 4° C., relative normalized RPA intensity
Protocol: as §1, §2, §3, §4

p38 T180/182 = assay: as above; settings: 24 h in preservative at 4° C., relative normalized RPA intensity
Protocol: as §1, §2, §3, §4

GSK3ab ser21/9 = assay: as above; settings: 24 h in preservative at 4° C., relative normalized RPA intensity
Protocol: as §1, §2, §3, §4

IKappa-Ba ser32 = assay: as above; settings: 24 h in preservative at 4° C., relative normalized RPA intensity
Protocol: as §1, §2, §3, §4

phosphoproteins [1] = assay: Overall phosphoprotein preservation of FNA / tumor needle samples stored 24 h at 4° C.; settings: compared to directly lysed cell baseline
Protocol: Fine Needle Aspirate (FNA) samples were stored for 24 hours at 4° C. in each of the chemicals/chemical solutions. The cellular samples were further processed for reverse phase protein microarray analysis. […] Each set of 4 horizontal spots by 2 vertical spots represent an original and its replicate sample, printed on the array in two-fold dilutions, for each FNA sample. The dilution series represents undiluted, 1:2, 1:4 and 1:8 dilutions of each sample.
A variety of types of tumor tissues were incubated in a series of conventional preservatives to determine if the preservatives were able to stabilize selected phosphoproteins.

phosphoproteins [2] = settings: for phosphoprotein endpoints, room temperature shipping in fixative versus snap frozen: real time, room temperature shipping conditions, FIGS. 6A, 6B and 7
EGFR Y1173 = assay: Phosphorylation over time with phosphatase inhibitor in cell culture model; format: cell-based; settings: living cells exposed to phosphatase inhibitor, FIG. 10A
Protocol: (§5) The phosphorylation rises rapidly to a high level in less than 40 minutes, which is followed by cell death.
(§6) These continuing metabolic processes present problems for the preservation of phosphoproteins in a sample. For example, the inventors have discovered that the addition of a phosphatase inhibitor alone, designed to block the removal of protein phosphate groups by endogenous phosphatases, can cause unchecked and highly abnormal upward accumulation of abnormal levels of phosphoproteins, reaching a lethal level.

[3] = test system: cultured cell line (A549); assay: as above; format: cell-based
Protocol: as §5, §6

[4] = Gastrinoma/liver tumor, Lysis Buffer = frozen immediately after lysis
[5] = Parathyroid tumor, Lysis Buffer = frozen immediately after lysis

Compound: CO [20-50% methanol in water, methanol]
- level of mTOR (S2448) phosphorylation, fixed versus snap frozen (mTOR (S2448)): equivalence

Compound: CCO [70% ethanol, ethanol]
- ERK T202/Y204 Normalized data (ERK T202/Y204; [4]): 11.51
- ERK T202/Y204 Normalized data (ERK T202/Y204; Mesothelioma): 30.74
- ERK T202/Y204 Normalized data (ERK T202/Y204; [5]): 37.27
- AKT ser473 Normalized data (AKT ser473; [4]): 0.00
- AKT ser473 Normalized data (AKT ser473; Mesothelioma): 10.94
- AKT ser473 Normalized data (AKT ser473; [5]): 7.18
- EGFR Y1148 Normalized data (EGFR Y1148; [4]): 39.95
- EGFR Y1148 Normalized data (EGFR Y1148; Mesothelioma): 30.71
- EGFR Y1148 Normalized data (EGFR Y1148; [5]): 47.58
- IRS-1 ser612 Normalized data (IRS-1 ser612; [4]): 19.74
- IRS-1 ser612 Normalized data (IRS-1 ser612; Mesothelioma): 12.16
- IRS-1 ser612 Normalized data (IRS-1 ser612; [5]): 15.92
- CC3 Asp175 Normalized data (CC3 Asp175; [4]): 5.09
- CC3 Asp175 Normalized data (CC3 Asp175; Mesothelioma): 15.92
- CC3 Asp175 Normalized data (CC3 Asp175; [5]): 19.16
- AKT Thr308 Normalized data (AKT Thr308; [4]): 0.00
- AKT Thr308 Normalized data (AKT Thr308; Mesothelioma): 15.15
- AKT Thr308 Normalized data (AKT Thr308; [5]): 18.57
- CREBser133 Normalized data (CREB ser133; [4]): 103.07
- CREBser133 Normalized data (CREB ser133; Mesothelioma): 53.05
- CREBser133 Normalized data (CREB ser133; [5]): 67.91
- p38 T180/182 Normalized data (p38 T180/182; [4]): 27.50
- p38 T180/182 Normalized data (p38 T180/182; Mesothelioma): 49.07
- p38 T180/182 Normalized data (p38 T180/182; [5]): 45.63
- GSK3ab ser21/9 Normalized data (GSK3ab ser21/9; [4]): 19.01
- GSK3ab ser21/9 Normalized data (GSK3ab ser21/9; Mesothelioma): 31.87
- GSK3ab ser21/9 Normalized data (GSK3ab ser21/9; [5]): 60.83
- IKappa-Ba ser32 Normalized data (IKappa-Ba ser32; [4]): 28.36
- IKappa-Ba ser32 Normalized data (IKappa-Ba ser32; Mesothelioma): 25.09
- IKappa-Ba ser32 Normalized data (IKappa-Ba ser32; [5]): 32.97
- preservation of phosphoproteins overall (phosphoproteins [1]): significant, reproducible degradation of the phospho endpoints

Compound: CO [Methanol]
- ERK T202/Y204 Normalized data (ERK T202/Y204; [4]): 46.47
- ERK T202/Y204 Normalized data (ERK T202/Y204; Mesothelioma): 18.87
- ERK T202/Y204 Normalized data (ERK T202/Y204; [5]): 28.54
- AKT ser473 Normalized data (AKT ser473; [4]): 4.15
- AKT ser473 Normalized data (AKT ser473; Mesothelioma): 11.14
- AKT ser473 Normalized data (AKT ser473; [5]): 11.06
- EGFR Y1148 Normalized data (EGFR Y1148; [4]): 81.50
- EGFR Y1148 Normalized data (EGFR Y1148; Mesothelioma): 63.00
- EGFR Y1148 Normalized data (EGFR Y1148; [5]): 53.41
- IRS-1 ser612 Normalized data (IRS-1 ser612; [4]): 65.97
- IRS-1 ser612 Normalized data (IRS-1 ser612; Mesothelioma): 37.33
- IRS-1 ser612 Normalized data (IRS-1 ser612; [5]): 23.51
- CC3 Asp175 Normalized data (CC3 Asp175; [4]): 37.64
- CC3 Asp175 Normalized data (CC3 Asp175; Mesothelioma): 16.93
- CC3 Asp175 Normalized data (CC3 Asp175; [5]): 14.80
- AKT Thr308 Normalized data (AKT Thr308; [4]): 43.73
- AKT Thr308 Normalized data (AKT Thr308; Mesothelioma): 32.75
- AKT Thr308 Normalized data (AKT Thr308; [5]): 28.31
- CREBser133 Normalized data (CREB ser133; [4]): 131.23
- CREBser133 Normalized data (CREB ser133; Mesothelioma): 114.37
- CREBser133 Normalized data (CREB ser133; [5]): 65.44
- p38 T180/182 Normalized data (p38 T180/182; [4]): 76.09
- p38 T180/182 Normalized data (p38 T180/182; Mesothelioma): 53.36
- p38 T180/182 Normalized data (p38 T180/182; [5]): 34.09
- GSK3ab ser21/9 Normalized data (GSK3ab ser21/9; [4]): 33.59
- GSK3ab ser21/9 Normalized data (GSK3ab ser21/9; Mesothelioma): 66.02
- GSK3ab ser21/9 Normalized data (GSK3ab ser21/9; [5]): 53.28
- IKappa-Ba ser32 Normalized data (IKappa-Ba ser32; [4]): 54.98
- IKappa-Ba ser32 Normalized data (IKappa-Ba ser32; Mesothelioma): 41.23
- IKappa-Ba ser32 Normalized data (IKappa-Ba ser32; [5]): 36.25

Compound: CCO [ethanol:water, ethanol]
- phosphoprotein endpoints, room temperature shipping in fixative versus snap frozen (phosphoproteins [2]): equivalence of the two methods

Compound: CCO [ethanol]
- preservation of phosphoproteins overall (phosphoproteins [1]): do not adequately preserve the phosphoproteins

Compound: CO [methanol: water, methanol]
- RPA spot intensities, fixed versus frozen tissue (phosphoproteins [2]; FIG. 6A): equivalent spot intensities
- phosphoprotein endpoints, room temperature shipping in fixative versus snap frozen (phosphoproteins [2]): equivalence of the two methods

Compound: pervanadate
- time for EGFR Y1173 phosphorylation to rise to a high level (EGFR Y1173): less than 40 minutes
- phosphorylation of phospho-endpoints over time ([3]; A549 cells, FIG. 10): hyperphosphorylation over time; also recorded: large surge of phosphorylation
- fate of cells after phosphorylation surge ([3]; living cells exposed to phosphatase inhibitor, FIG. 10A): cell death
